Data on twelve compounds can be found in ChEMBL document CHEMBL1153599, “Synthesis of new chiral 2,5-disubstituted 1,3,4-thiadiazoles possessing gamma-butenolide moiety and preliminary evaluation of in vitro anticancer activity” (Eur J Med Chem, 2009).

Structures are written as SMILES.

Assay [1] has as its system HeLa. As to the kind of experiment: Viability of human HeLa cells at 10 uM after 24 hrs by MTT assay. (Formazan colour is commonly taken as a measure of viable cells.)
Assay [2] relates to HeLa. In words: Anticancer activity against human HeLa cells after 24 hrs by MTT assay. Type of assay: functional, cell-based.
For assay [3], the system named is HeLa. As to the kind of experiment: Viability of human HeLa cells at 1 uM after 24 hrs by MTT assay.
Assay [4] has as its system HeLa. In words: Viability of human HeLa cells at 0.1 uM after 24 hrs by MTT assay.
Assay [5] has as its system HeLa. In words: Viability of human HeLa cells at 20 uM after 24 hrs by MTT assay.
The subject of assay [6] is HeLa. In words: Viability of human HeLa cells at 5 uM after 24 hrs by MTT assay.

As usually defined, the viability is the share of living cells, or the viability signal relative to a control. Broadly, the IC50 is the concentration needed to halve the response being measured. Higher therefore signals weaker potency. The compound `CC1CCC(C(C)C)C(O[C@H]2OC(=O)C(Br)=C2Sc2nnc(-c3ccc([N+](=O)[O-])cc3)s2)C1` (some centres not stated) gave a viability at 10 µM with HeLa [1] of 34.5%. The IC50 with HeLa [2] stood at 900 nM. This compound showed a viability at 1 µM in the assay with HeLa [3] of 47.6%. In the assay with HeLa [4], this compound registered a viability at 0.1 µM of 59.2%. In the assay on HeLa [5], this compound gave a viability at 20 µM of 24.5%. Further, the viability at 5 µM in the assay on HeLa [6] came to 30%.
Turning to `CC1CCC(C(C)C)C(O[C@H]2OC(=O)C(Br)=C2Sc2nnc(-c3ccccc3)s2)C1` (some centres not stated), the viability at 10 µM with HeLa [1] amounted to 28.1%. In the assay on HeLa [2], this compound registered an IC50 of 3000 nM. In addition, the viability at 1 µM in the assay with HeLa [3] was determined as 59.1%. The viability at 0.1 µM with HeLa [4] was found to be 56.1%. This compound yielded a viability at 20 µM in the assay with HeLa [5] of 29.7%. In the assay with HeLa [6], this compound registered a viability at 5 µM of 40.6%.
Compound `CC1CCC(C(C)C)C(O[C@H]2OC(=O)C(Br)=C2Sc2nnc(-c3ccccc3O)s2)C1` (some centres not stated) came in with a viability at 10 µM in the assay with HeLa [1] of 42.3%. The same compound returned an IC50 in the assay with HeLa [2] of 2900 nM. The viability at 1 µM in the assay on HeLa [3] amounted to 61.2%. In the assay on HeLa [4], the viability at 0.1 µM worked out at 58.9%. This compound also came in with a viability at 20 µM in the assay with HeLa [5] of 33.4%. This compound returned a viability at 5 µM in the assay on HeLa [6] of 37.5%.
In the assay with HeLa [1], `CC1CCC(C(C)C)C(O[C@H]2OC(=O)C(Br)=C2Sc2nnc(-c3ccco3)s2)C1` (some centres not stated) returned a viability at 10 µM of 36.9%. In the assay with HeLa [2], this compound displayed an IC50 of 1700 nM. In the assay with HeLa [3], this compound displayed a viability at 1 µM of 54.3%. The viability at 0.1 µM in the assay on HeLa [4] was found to be 55.6%. In addition, the viability at 20 µM in the assay on HeLa [5] came out at 27.2%. In the assay with HeLa [6], this compound displayed a viability at 5 µM of 29.4%.
`CC1CCC(C(C)C)C(O[C@H]2OC(=O)C(Br)=C2Sc2nnc(-c3cccnc3)s2)C1` (some centres not stated) came in with a viability at 10 µM in the assay with HeLa [1] of 32.8%. For the same compound, in the assay with HeLa [2], the IC50 amounted to 5600 nM. Besides, the viability at 1 µM with HeLa [3] turned out to be 59.5%. The same compound returned a viability at 0.1 µM in the assay with HeLa [4] of 56.4%. Moreover, in the assay on HeLa [5], the viability at 20 µM came out at 33%. The viability at 5 µM with HeLa [6] stood at 52.3%.
Take `CC1CCC(C(C)C)C(O[C@H]2OC(=O)C(Br)=C2Sc2nnc(-c3ccc(Cl)cc3)s2)C1` (some centres not stated): the viability at 10 µM in the assay on HeLa [1] amounted to 35.1%. Moreover, the IC50 with HeLa [2] amounted to 2200 nM. The same compound showed a viability at 1 µM with HeLa [3] of 58.2%. Also, the viability at 0.1 µM with HeLa [4] was 51%. The same compound yielded a viability at 20 µM with HeLa [5] of 26.8%. Further, the viability at 5 µM with HeLa [6] was determined as 29.3%.
Consider `CC1(C)C2CCC1(C)C(O[C@H]1OC(=O)C(Br)=C1Sc1nnc(-c3cccnc3)s1)C2` (some centres not stated), for which the viability at 10 µM with HeLa [1] stood at 40.5%. This compound also returned an IC50 in the assay on HeLa [2] of 3400 nM. This compound also had a viability at 1 µM with HeLa [3] of 56.3%. In the assay with HeLa [4], this compound displayed a viability at 0.1 µM of 58.9%. This compound also displayed a viability at 20 µM in the assay on HeLa [5] of 36.3%. This compound had a viability at 5 µM with HeLa [6] of 45.4%.
As for `CC1(C)C2CCC1(C)C(O[C@H]1OC(=O)C(Br)=C1Sc1nnc(-c3ccncc3)s1)C2` (some centres not stated), the viability at 10 µM in the assay with HeLa [1] is 39.4%. The compound further showed a half-maximal inhibitory concentration (IC50) in the assay with HeLa [2] of 3000 nM. In addition, the viability at 1 µM with HeLa [3] was 55.1%. In addition, in the assay with HeLa [4], the viability at 0.1 µM is 51.8%. The viability at 20 µM in the assay with HeLa [5] was determined as 40.6%. Further, the viability at 5 µM with HeLa [6] came to 44.9%.
In the assay on HeLa [1], `CC1(C)C2CCC1(C)C(O[C@H]1OC(=O)C(Br)=C1Sc1nnc(-c3ccco3)s1)C2` (some centres not stated) returned a viability at 10 µM of 28.6%. The compound also returned an IC50 in the assay on HeLa [2] of 1300 nM. Further, in the assay on HeLa [3], the viability at 1 µM stood at 51.4%. The viability at 0.1 µM with HeLa [4] was 50.9%. In addition, the viability at 20 µM in the assay with HeLa [5] was found to be 34.3%. The compound also had a viability at 5 µM in the assay on HeLa [6] of 31.1%.
`COc1ccc(-c2nnc(SC3=C(Br)C(=O)O[C@@H]3OC3CC(C)CCC3C(C)C)s2)cc1` (some centres not stated): in the assay on HeLa [1], the viability at 10 µM is 35.6%. The compound also returned an IC50 with HeLa [2] of 3700 nM. In addition, in the assay with HeLa [3], the viability at 1 µM was found to be 55.6%. The same compound gave a viability at 0.1 µM in the assay on HeLa [4] of 56.4%. In the assay with HeLa [5], this compound came in with a viability at 20 µM of 32.9%. Moreover, the viability at 5 µM in the assay with HeLa [6] is 47.1%.
In the assay with HeLa [1], `CC1CCC(C(C)C)C(O[C@H]2OC(=O)C(Br)=C2Sc2nnc(-c3ccncc3)s2)C1` (some centres not stated) had a viability at 10 µM of 26.8%. Moreover, the IC50 in the assay with HeLa [2] stood at 1300 nM. This compound also gave a viability at 1 µM in the assay with HeLa [3] of 51.3%. In addition, the viability at 0.1 µM in the assay with HeLa [4] is 73.8%. In the assay on HeLa [5], this compound displayed a viability at 20 µM of 22.3%. Besides, the viability at 5 µM with HeLa [6] came out at 33.9%.
As for `CC1CCC(C(C)C)C(O[C@H]2OC(=O)C(Br)=C2Sc2nnc(-c3ccc(O)cc3)s2)C1` (some centres not stated), in the assay with HeLa [1], the viability at 10 µM amounted to 44.4%. In the assay on HeLa [2], this compound showed a half-inhibitory concentration (IC50) of 2600 nM. Besides, the viability at 1 µM with HeLa [3] came to 59.4%. In the assay on HeLa [4], this compound returned a viability at 0.1 µM of 60.6%. In addition, the viability at 20 µM with HeLa [5] is 36%. The compound also yielded a viability at 5 µM in the assay on HeLa [6] of 36%.
